SMILES strings stand for the structures.

One test deals with Spodoptera litura. In words: Insecticidal effect for Spodoptera litura by spraying treatment to host crop (Test Example 2). The class given is in vivo. Particulars: 100 ppm; sprayed on soybean; third-instar larvae of Spodoptera litura; fifth day after. The method, then: Insecticidal Effect for Spodoptera litura by Spraying Treatment to Host Crop
A pesticidal solution, which was prepared by dissolving 5 mg of test compound (represented by the compound Nos. in the above Examples) in 0.5-ml of acetone containing Tween 20 (trade name) and then diluting it to the prescribed concentration (100 ppm) with Dain (trade name, sticker) water diluted 5000-fold, was sprayed on a soybean whose primary leaves had developed completely with spray gun in the amounts wherein the pesticidal solution dripped. After drying the pesticidal solution, two primary leaves were cut off. The leaves were put into an ice cream cup (180 ml), and ten third-instar larvae of Spodoptera litura were set free therein. The cup was left in a temperature-controlled breeding room (25° C.). On the fifth day after, the number of surviving Spodoptera litura was examined. The rate of dead pests was calculated by the following formula. rate of dead pests (%)=(number of dead pests/number of test pests)×100
`O=C(c1c(F)cccc1F)N1COCN(c2ccc(Oc3ccc(C(F)(F)F)cc3Cl)cc2F)C1=O` [I-3]: the “rate of dead pests (%)” value came to 100%. The same measure, in the same setting: under `O=C(c1c(F)cccc1F)N1COCN(c2cc(Cl)c(OC(F)(F)C(F)F)c(Cl)c2)C1=O` [I-5] stands 100%; under `O=C(c1c(F)cccc1F)N1COCN(c2cc(Cl)c(OC(F)(F)C(F)C(F)(F)F)cc2Cl)C1=O` (centres unmarked) [I-6], 100%; under `O=C(c1c(F)cccc1F)N1COCN(c2ccc(SC(F)(F)C(F)Cl)cc2F)C1=O` (centres unmarked) [I-7], 100%. As for `CSc1cc(F)c(N2COCN(C(=O)c3c(F)cccc3F)C2=O)c(F)c1` [I-31], the “rate of dead pests (%)” value is 100%. On the same count and under the same terms, under `Cc1cc(SC(F)(F)F)ccc1N1COCN(C(=O)c2c(F)cccc2F)C1=O` [I-68] stands 100%; under `O=C(c1c(F)cccc1F)N1COCN(c2ccc(SC(F)(F)F)c(Cl)c2)C1=O` [I-77], 100%; under `O=C(c1c(F)cccc1F)N1COCN(c2ccc(SC(F)(F)F)c(F)c2)C1=O` [I-80], 100%.

For the compound `Cc1c(SC(F)(F)F)ccc(N2COCN(C(=O)c3c(F)cccc3F)C2=O)c1C` [I-83], the “rate of dead pests (%)” value turned out to be 100%. The same measure, in the same setting: with `Cc1cc(N2COCN(C(=O)c3c(F)cccc3F)C2=O)c(C)cc1SC(F)(F)F` [I-86] the figure was 100%.

Regarding `Cc1cc([S+]([O-])C(F)(F)F)c(C)cc1N1COCN(C(=O)c2c(F)cccc2F)C1=O` (centres unmarked) [I-87], the “rate of dead pests (%)” value amounted to 100%. Same read-out and setting: under `Cc1cc(SC(F)(F)F)c(Cl)cc1N1COCN(C(=O)c2c(F)cccc2F)C1=O` [I-89] stands 100%.

On to `Cc1cc([S+]([O-])C(F)(F)F)c(Cl)cc1N1COCN(C(=O)c2c(F)cccc2F)C1=O` (centres unmarked) [I-90], for which the “rate of dead pests (%)” value was 100%.

Turning to `O=C(c1c(F)cccc1F)N1COCN(c2ccc(SC(F)(F)F)c(Cl)c2Cl)C1=O` [I-92], the “rate of dead pests (%)” value is 100%. The same measure, in the same setting: with `O=C(c1c(F)cccc1F)N1COCN(c2ccc(SC(F)(F)F)c(Cl)c2F)C1=O` [I-95] the figure was 100%. Same read-out and setting: with `O=C(c1c(F)cccc1F)N1COCN(c2ccc([S+]([O-])C(F)(F)F)c(Cl)c2F)C1=O` (centres unmarked) [I-96] the figure was 100%; with `O=C(c1c(F)cccc1F)N1COCN(c2cc(Cl)c([S+]([O-])C(F)(F)F)cc2F)C1=O` (centres unmarked) [I-99], 100%. The same measure, in the same setting: under `O=C(c1c(F)cccc1F)N1COCN(c2ccc(SC(F)(F)F)c(F)c2F)C1=O` [I-107] stands 100%; under `O=C(c1c(F)cccc1F)N1COCN(c2cc(F)c(SC(F)(F)F)cc2F)C1=O` [I-110], 100%; under `O=C(c1c(F)cccc1F)N1COCN(c2cc(F)c(SC(F)(F)F)c(F)c2)C1=O` [I-113], 100%. For `O=C(c1c(F)cccc1F)N1COCN(c2c(F)cc([S+]([O-])C(F)(F)F)c(F)c2F)C1=O` (centres unmarked) [I-117], the “rate of dead pests (%)” value is recorded as 100%. Still for that read-out and setting: with `Cc1cc(SC(F)(F)F)c(F)cc1N1COCN(C(=O)c2c(F)cccc2F)C1=O` [I-125] the figure was 100%; with `CSc1cc(F)c(N2COCN(C(=O)c3c(F)cccc3Cl)C2=O)c(F)c1` [I-208], 100%.

For `Cc1cc(N2COCN(C(=O)c3c(F)cccc3Cl)C2=O)ccc1SC(F)(F)F` [I-248], the “rate of dead pests (%)” value stood at 100%. Consider `O=C(c1c(F)cccc1Cl)N1COCN(c2ccc(SC(F)(F)F)c(Cl)c2)C1=O` [I-254], for which the “rate of dead pests (%)” value is listed as 100%. On the same count and under the same terms, with `O=C(c1c(F)cccc1Cl)N1COCN(c2ccc(SC(F)(F)F)c(F)c2)C1=O` [I-257] the figure was 100%; with `O=C(c1c(F)cccc1Cl)N1COCN(c2ccc([S+]([O-])C(F)(F)F)c(F)c2)C1=O` (centres unmarked) [I-258], 100%; with `Cc1cc(SC(F)(F)F)c(Cl)cc1N1COCN(C(=O)c2c(F)cccc2Cl)C1=O` [I-266], 100%. Consider `O=C(c1c(F)cccc1Cl)N1COCN(c2ccc(SC(F)(F)F)c(Cl)c2Cl)C1=O` [I-269], for which the “rate of dead pests (%)” value worked out at 100%. In the case of `O=C(c1c(F)cccc1Cl)N1COCN(c2ccc([S+]([O-])C(F)(F)F)c(Cl)c2Cl)C1=O` (centres unmarked) [I-270], the “rate of dead pests (%)” value is recorded as 100%. Same read-out and setting: under `O=C(c1c(F)cccc1Cl)N1COCN(c2ccc(SC(F)(F)F)c(Cl)c2F)C1=O` [I-272] stands 100%; under `O=C(c1c(F)cccc1Cl)N1COCN(c2ccc([S+]([O-])C(F)(F)F)c(Cl)c2F)C1=O` (centres unmarked) [I-273], 100%; under `O=C(c1c(F)cccc1Cl)N1COCN(c2cc(Cl)c([S+]([O-])C(F)(F)F)cc2F)C1=O` (centres unmarked) [I-276], 100%. On the same count and under the same terms, with `O=C(c1c(F)cccc1Cl)N1COCN(c2c(F)cc([S+]([O-])C(F)(F)F)cc2Cl)C1=O` (centres unmarked) [I-279] the figure was 100%; with `O=C(c1c(F)cccc1Cl)N1COCN(c2c(F)cc([S+]([O-])C(F)(F)F)cc2F)C1=O` (centres unmarked) [I-282], 100%. Take `O=C(c1c(F)cccc1Cl)N1COCN(c2ccc(SC(F)(F)F)c(F)c2F)C1=O` [I-284]: the “rate of dead pests (%)” value is reported as 100%. The same measure, in the same setting: with `O=C(c1c(F)cccc1Cl)N1COCN(c2ccc([S+]([O-])C(F)(F)F)c(F)c2F)C1=O` (centres unmarked) [I-285] the figure was 100%; with `O=C(c1c(F)cccc1Cl)N1COCN(c2cc(F)c(SC(F)(F)F)cc2F)C1=O` [I-287], 100%. Still for that read-out and setting: under `O=C(c1c(F)cccc1Cl)N1COCN(c2cc(F)c(SC(F)(F)F)c(F)c2)C1=O` [I-290] stands 100%; under `O=C(c1c(F)cccc1Cl)N1COCN(c2c(F)cc(SC(F)(F)F)c(F)c2F)C1=O` [I-293], 100%.

Regarding `O=C(c1c(F)cccc1Cl)N1COCN(c2c(F)cc([S+]([O-])C(F)(F)F)c(F)c2F)C1=O` (centres unmarked) [I-294], the “rate of dead pests (%)” value worked out at 100%. Consider `O=C(c1c(F)cccc1Cl)N1COCN(c2c(F)c(F)c(SC(F)(F)F)c(F)c2F)C1=O` [I-296], for which the “rate of dead pests (%)” value is 100%. On the same count and under the same terms, under `Cc1c(N2COCN(C(=O)c3c(F)cccc3Cl)C2=O)ccc(SC(F)(F)F)c1Cl` [I-299] stands 100%; under `Cc1c(N2COCN(C(=O)c3c(F)cccc3Cl)C2=O)ccc([S+]([O-])C(F)(F)F)c1Cl` (centres unmarked) [I-300], 100%. The same measure, in the same setting: with `Cc1cc(SC(F)(F)F)c(F)cc1N1COCN(C(=O)c2c(F)cccc2Cl)C1=O` [I-302] the figure was 100%; with `Cc1cc([S+]([O-])C(F)(F)F)c(F)cc1N1COCN(C(=O)c2c(F)cccc2Cl)C1=O` (centres unmarked) [I-303], 100%; with `O=C(c1c(F)cccc1Cl)N1COCN(c2ccc(SC(F)(F)C(F)(F)F)cc2F)C1=O` [I-305], 100%. Still for that read-out and setting: with `O=C(c1c(F)cccc1Cl)N1COCN(c2ccc(SC(F)(F)C(F)(F)C(F)(F)F)cc2F)C1=O` [I-320] the figure was 100%; with `O=C(c1c(F)cccc1Cl)N1COCN(c2ccc(SC(F)(F)C(F)(F)C(F)(F)F)cc2Cl)C1=O` [I-323], 100%; with `O=C(c1c(F)cccc1Cl)N1COCN(c2ccc([S+]([O-])C(F)(F)C(F)(F)C(F)(F)F)cc2Cl)C1=O` (centres unmarked) [I-324], 100%.

On to `Cc1cc(SC(F)(F)C(F)(F)C(F)(F)F)c(Cl)cc1N1COCN(C(=O)c2c(F)cccc2Cl)C1=O` [I-329], for which the “rate of dead pests (%)” value came out at 100%. The same measure, in the same setting: under `Cc1cc([S+]([O-])C(F)(F)C(F)(F)C(F)(F)F)c(Cl)cc1N1COCN(C(=O)c2c(F)cccc2Cl)C1=O` (centres unmarked) [I-330] stands 100%; under `O=C(c1c(Cl)cccc1Cl)N1COCN(c2ccc(SC(F)F)cc2F)C1=O` [I-395], 100%; under `O=C(c1c(F)cccc1F)N1CN(Cc2ccccc2)CN(c2ccc(Cl)cc2)C1=O` [III-4], 100%.

The test is the same for the next values; noted with them: 120 h; 100 ppm; sprayed on soybean; third-instar larvae of Spodoptera litura; fifth day after; read-out: rate of dead pests (%).
For the compound `O=C(c1c(F)cccc1F)N1COCN(c2ccc(SC(F)(C(F)(F)F)C(F)(F)F)cc2F)C1=O` [I-158, 3-(2,6-difluorobenzoyl)-5-[2-fluoro-4-(1,1,1,2,3,3,3-heptafluoro-2-propylthio)phenyl]tetrahydro-4H-1,3,5-oxadiazin-4-one], the pest or weed control at 100 ppm was 100%.

With `CN1CN(C(=O)c2c(F)cccc2F)C(=O)N(c2ccc(Cl)cc2)C1` [III-1, 1-(4-chlorophenyl)-3-(2,6-difluorobenzoyl)-5-methyltetrahydro-1,3,5-triazin-2(1H)-one], the pest or weed control at 100 ppm was found to be 100%. The same measure, in the same setting: with `C=CCN1CN(C(=O)c2c(F)cccc2F)C(=O)N(c2ccc(Cl)cc2)C1` [III-5, 5-allyl-1-(4-chlorophenyl)-3-(2,6-difluorobenzoyl)tetrahydro-1,3,5-triazin-2 (1H)-one] the figure was 100%. With `O=C(c1c(F)cccc1F)N1CNCN(c2ccc(Cl)cc2)C1=O` [III-6, 1-(4-chlorophenyl)-3-(2,6-difluorobenzoyl)tetrahydro-1,3,5-triazin-2(1H)-one], the pest or weed control at 100 ppm was determined as 100%.

Still in this test, the particulars now being: Spodoptera litura, in Glycine max, 120 h, read-out: rate of dead pests (%).
Take `O=C(c1c(F)cccc1F)N1COCN(c2ccc(SC(F)(F)C(F)(F)C(F)(F)F)cc2F)C1=O` [I-143, 3-(2,6-difluorobenzoyl)-5-[2-fluoro-4-(1,1,2,2,3,3,3-heptafluoro-1-propylthio)phenyl]tetrahydro-4H-1,3,5-oxadiazin-4-one]: the pest or weed control at 100 ppm was determined as 100%.

These data come from US20050159599A1, “Cyclic compound, process for producing the same, and pest control agent” (priority 2002, published 2005).
